Reference: patent US20040147028A1, “Yeast treatment” (priority 2002, published 2004)
Where two headings read alike, the source gives them in different places.

Columns and labels:
yeast protoplasts [1] = system: yeast protoplasts
Protocol: To ensure the competent nature of the formed protoplast to undertake endocytosis, the yeast cells were grown on a modified YEPD media in which the 2% (w/v) dextrose was replaced by 4% (w/v) sucrose as the carbon source to facilitate a mechanism for the absorption and transport of the sucrose C14 by the yeast cells. Protoplasts were formed as described above and isolated again utilising a sorbitol based density gradient. Silicon oil isolation of protoplasts is a convenient method for separating radio labelled cells from a sugar gradient solution. […] Seven micro tubes (400 ul) were prepared for pelletising the protoplasts with each containing 10 ul of Fluorinert FC 77 as a capture solution and 100 ul of Silicon Oil AR 200 (Density of 1.05 g/1) as the media to be used for the separation of sucrose C14 protoplasts. In the experiment 40 ul of a 1M sucrose (made in a 50 ml volumetric flask) was used to which was added 2 ul of the sucrose C14 stock. Then 1.2 ml of the protoplast suspension was placed into a 1.5 ml eppendoff tube and 12 ul of the 1M sucrose C14 solution was placed in the cap. The incubation time started when the cap was sealed onto the eppendoff tube. Next, 100 ul aliquots of the protoplasts were taken at 10 minute intervals and placed sequentially into a series of the prepared 400 ul tubes containing the silicon oil gradients and spun at 7000 rpm for 10 second. The tubes were removed at each time interval and cut through the upper silicon oil fraction to capture the formed protoplast pellet and resuspended in 100 ul of Milli Q water in a scintillation tube containing 3 ml of scintillation fluid. As a standard, 100 ul volumes of the 1M sucrose containing the sucrose C14 were taken for counting but not spun through the silicon oil as were the protoplasts without the isotope but these spun through the silicon oil and counted to avoid quenching correction of the protoplast extract.
A graph of time vs. counts, recorded as nmoles of absorbed sucrose was then prepared to confirm the uptake of our sucrose isotope by the competent protoplasts.
Standards were prepared and measured for background scintillation without the added isotope and 100 ul of a 1M sucrose standard continuing the isotope was measured to obtain counts for a 1 umole solution of sucrose.

yeast protoplasts [2] = assay: Endocytosis study: yeast protoplasts incubated with dye-bound liposomes, confocal and transmission electron microscopy; format: cell-based, Saccharomyces cerevisiae (YNN 281); details: dye incubated alone with the formed protoplasts, unencapsulated
Protocol: An 0.8 ml aliquot of protoplast suspension was dispensed through a large orifice pipette tip (ensuring minimal disturbance of the fragile protoplast) into a sterilised eppendoff tube to which was added 0.8 ml of the liposome suspension obtained from the gel filtration. Both solutions were of equivalent densities to ensure the stability of the protoplast and gently mixed prior to incubation. The tubes were individually wrapped in foil and embedded on their side in a sheet of Styrofoam which was also wrapped in foil to ensure the tubes would remain in place and then immersed into a water bath a 37° C. for the 90 minute incubation.
A 20 ul sample of the incubated suspension was applied to a microscope slide with the edges of the cover slip sealed with an acrylic resin to inhibit drying out of the sample. The slides once made were stored in the dark to reduce the risk of a loss in fluorescence of the FITC conjugate and viewed immediately under phase contrast and fluorescence using the confocal microscope.
The technique used for preparing sections of block-mounted cells for image analysis required 0.5 ml of the protoplast-liposome suspension to be fixed with 50 ul of 1.25% (v/v) glutaraldehyde and 1.0% (w/v) paraformaldehyde in a 0.2M cacodylate buffer at pH 7.2 for 1 hour. The fixed suspension was then mixed with a similar volume of 5.0% agarose and placed at 4° C. for 20 minutes to set. […]

## O[14CH2]C1OC(O[C@@]2([14CH2]O)OC([14CH2]O)C(O)C2O)C(O)C(O)C1O (stereo partly drawn) [I-Sucrose 14 C, I-sucrose-ul-14C]
Yeast protoplasts [1]; time 1 min
  I-Sucrose 14 C uptake: 1.87 nmol
Yeast protoplasts [1]; time 10 min
  I-Sucrose 14 C uptake: 6.62 nmol
Yeast protoplasts [1]; time 20 min
  I-Sucrose 14 C uptake: 13.4 nmol
Yeast protoplasts [1]; time 30 min
  I-Sucrose 14 C uptake: 17.9 nmol
Yeast protoplasts [1]; time 40 min
  I-Sucrose 14 C uptake: 26.6 nmol
Yeast protoplasts [1]; time 50 min
  I-Sucrose 14 C uptake: 35.9 nmol
Yeast protoplasts [1]; time 60 min
  I-Sucrose 14 C uptake: 56.9 nmol

## O=C(O)CN(CC(=O)O)Cc1cc2c(cc1O)Oc1cc(O)c(CN(CC(=O)O)CC(=O)O)cc1C21OC(=O)c2ccccc21 [calcein]
Yeast protoplasts [2]
  passive migration across the plasma membrane of protoplasts (false positive): some passive migration of this molecule across the plasma membrane

## fluorescein isothiocyanate dextran [formula 13]
Yeast protoplasts [2]
  passive migration across the plasma membrane of protoplasts (false positive): eliminated this situation
